Experimental data reported in patent EP0013144A1, “Substituted diphenylamine derivatives, compositions and herbicidal uses thereof, and processes for their preparation” (ICI AUSTRALIA LIMITED, priority 1978, dated 1980).

Columns and labels:
Assay type in all cases: in vivo
Ryegrass [1] = assay: Pre-emergence herbicidal activity (Example 31); design: key: 0-3 scale: 0 = 0-25% damage, 3 = 75-99% kill, 3+ = 100% kill; conditions: after three weeks
Description: (§1) Concentrated formulations of the compounds of the invention were prepared by: • a) in the case of oils and waxy solids, dissolving the compound in toluene containing 7% v/v "Teric" N13 ("Teric" is a Trade MarK and "Teric" N13, a product of ethoxylation of nonylphenol, is available from ICI Australia Limited) and 3% v/v "Kemmat" SC15B ("Kemmat" is a Trade Mark and "Kemmat" SC15B is a formulation of calcium dodecylbenzene sulfonate); or • b) in the case of crystalline solids, adding 5 parts by weight of the compound and 1 part by weight of . ''Dyapol" PT ("Dyapol" is a Trade Mark and "Dyapol" PT is an anionic suspending agent) to 94 parts by weight of an aqueous solution containing 0.25% v/v of "Teric" N8 (a product of ethoxylation of nonylphenol) and ball-milling the mixture to produce a stable suspension. The emulsifiable concentrates and suspensions were then diluted with water to give an aqueous composition of the required concentration suitable for use in the evaluation of the pre-emergence and post-emergence herbicidal activity of the compounds of the invention.
(§2) The pre-emergent herbicidal activity of the compounds of the invention formulated as described in Example 30 was assessed by the following procedure.
(§3) The seeds of the test species were sown in rows 2 cm deep in soil contained in seed boxes. The monocotyledonous plants and the dicotyledonous plants were sprayed with the required quantity of a composition of the invention. Two duplicate seed Doxes were prepared in the same manner but were not sprayed with a composition of the invention and were used for comparison purposes. All the boxes were placed in a glasshouse, lightly watered with an overhead spray to initiate germination and then sub-irrigated as required for optimum plant growth. After three weeks the boxes were removed from the glasshouse and the effect of the treatment was visually assessed. The results are presented in Table 3 where the damage to plants is rated on a scale of from 0 to 3 where 0 represents from 0 to 25% damage, 3 represents 75 to 99% kill and 3+ represents 100% kill.
(§4) A dash (-) means that no experiment was carried out.

Wheat [2] = assay: Pre-emergence herbicidal activity (Example 31); design: key: 0-3 scale: 0 = 0-25% damage, 3 = 75-99% kill, 3+ = 100% kill; conditions: after three weeks
Description: as §1, §2, §3, §4

Japanese millet [3] = assay: Pre-emergence herbicidal activity (Example 31); conditions: after three weeks
Description: as §1, §2, §3, §4

Wild Oats [4] = assay: Pre-emergence herbicidal activity (Example 31); conditions: after three weeks
Description: as §1, §2, §3, §4

Mustard [5] = assay: Pre-emergence herbicidal activity (Example 31); conditions: after three weeks
Description: as §1, §2, §3, §4

Ipomea [6] = assay: Pre-emergence herbicidal activity (Example 31); conditions: after three weeks
Description: as §1, §2, §3, §4

Sunflower [7] = assay: Pre-emergence herbicidal activity (Example 31); conditions: after three weeks
Description: as §1, §2, §3, §4

Japanese millet [8] = assay: Post-emergence herbicidal activity (Example 32); conditions: 3 weeks after spraying
Description: as §1
(§5) The post-emergent herbicidal activity of the compounds of the invention formulated as described in Example 30 was assessed by the following procedure.
(§6) The seeds of the test species were sown in rows 2 cm deep in soil contained in seed boxes. The monocotyledonous plants and the dicotyledonous plants were sown in separate seed boxes in duplicate. The four seed boxes were placed in a glasshouse, lightly watered with an overhead spray to initiate germination and then sub-irrigated as required for optimum plant growth. After the plants had grown to a height of about 10 to 12.5 cm one box of each of the monocotyledonous plants and the dicotyledonous plants was removed from the glasshouse and sprayed with the required quantity of a composition of the invention. After spraying the boxes were returned to the glasshouse for further 3 weeks and the effects of the treatment was visually assessed by comparison with the untreated controls. The results are presented in Table 4 where the damage to plants is rated on a scale of from 0 to 3 where 0 represents 0 to 25% damage, 3 represents 75 to 99% kill and 3+ represents 100% kill. A dash (-) means that no experiment was carried out.

Wild Oats [9] = assay: Post-emergence herbicidal activity (Example 32); conditions: 3 weeks after spraying
Description: as §1, §5, §6

Mustard [10] = assay: Post-emergence herbicidal activity (Example 32); conditions: 3 weeks after spraying
Description: as §1, §5, §6

Ipomea [11] = assay: Post-emergence herbicidal activity (Example 32); conditions: 3 weeks after spraying
Description: as §1, §5, §6

Sunflower [12] = assay: Post-emergence herbicidal activity (Example 32); conditions: 3 weeks after spraying
Description: as §1, §5, §6

Ryegrass [13] = assay: Post-emergence herbicidal activity (Example 32); conditions: 3 weeks after spraying
Description: as §1, §5, §6

Wheat [14] = assay: Post-emergence herbicidal activity (Example 32); design: key: 0-3 scale: 0 = 0-25% damage, 3 = 75-99% kill, 3+ = 100% kill; conditions: 3 weeks after spraying
Description: as §1, §5, §6

SMILES | damage to plants, Rg (Ryegrass [1]; 1 kg/ha) | damage to plants, Rg (Ryegrass [1]; 5 kg/ha) | damage to plants, Wh (Wheat [2]; 1 kg/ha) | damage to plants, Wh (Wheat [2]; 5 kg/ha) | damage to plants, Jm (Japanese millet [3]; 1 kg/ha) | damage to plants, Jm (Japanese millet [3]; 5 kg/ha) | damage to plants, Ot (Wild Oats [4]; 5 kg/ha) | damage to plants, Ms (Mustard [5]; 1 kg/ha) | damage to plants, Ms (Mustard [5]; 5 kg/ha) | damage to plants, Ip (Ipomea [6]; 1 kg/ha) | damage to plants, Ip (Ipomea [6]; 5 kg/ha) | damage to plants, Sf (Sunflower [7]; 1 kg/ha) | damage to plants, Sf (Sunflower [7]; 5 kg/ha) | damage to plants, Jm (Japanese millet [8]; 1 kg/ha) | damage to plants, Jm (Japanese millet [8]; 5 kg/ha) | damage to plants, Ot (Wild Oats [9]; 1 kg/ha) | damage to plants, Ot (Wild Oats [9]; 5 kg/ha) | damage to plants, Ms (Mustard [10]; 1 kg/ha) | damage to plants, Rg (Ryegrass [13]; 1 kg/ha) | damage to plants, Wh (Wheat [14]; 1 kg/ha) | other results
COC(=O)C(C)Oc1ccc(N(C)c2ccc(Cl)cc2)cc1 (stereo not drawn) [Compound 13, Methyl 2-[4-(4-chloro-N-methylanilino)phenoxy]-propionate] | 0 (0 represents from 0 to 25% damage) | 1 | 0 (0 represents from 0 to 25% damage) | 0 (0 represents from 0 to 25% damage) | 0 (0 represents from 0 to 25% damage) | 0 (0 represents from 0 to 25% damage) | 0 (0 represents from 0 to 25% damage) | 0 (0 represents from 0 to 25% damage) | 0 (0 represents from 0 to 25% damage) | 0 (0 represents from 0 to 25% damage) | 0 (0 represents from 0 to 25% damage) | 0 (0 represents from 0 to 25% damage) | 0 (0 represents from 0 to 25% damage) | 3 (3 represents 75 to 99% kill) | 3 (3 represents 75 to 99% kill) | 0 (0 represents 0 to 25% damage) | 0 (0 represents 0 to 25% damage) | 0 (0 represents 0 to 25% damage) | 1 | 0 (0 represents 0 to 25% damage) | damage to plants, Ot (Wild Oats [4]; 1 kg/ha): 0 (0 represents from 0 to 25% damage); damage to plants, Ms (Mustard [10]; 5 kg/ha): 0 (0 represents 0 to 25% damage); damage to plants, Ip (Ipomea [11]; 1 kg/ha): 0 (0 represents 0 to 25% damage); damage to plants, Ip (Ipomea [11]; 5 kg/ha): 0 (0 represents 0 to 25% damage); damage to plants, Sf (Sunflower [12]; 1 kg/ha): 0 (0 represents 0 to 25% damage); damage to plants, Sf (Sunflower [12]; 5 kg/ha): 0 (0 represents 0 to 25% damage); damage to plants, Rg (Ryegrass [13]; 5 kg/ha): 3 (3 represents 75 to 99% kill); damage to plants, Wh (Wheat [14]; 5 kg/ha): 0 (0 represents 0 to 25% damage)
COC(=O)C(C)Oc1ccc(Nc2ccc(Cl)cc2Cl)cc1 (stereo not drawn) [Compound 22] |  | 2 |  | 0 (0 represents from 0 to 25% damage) |  | 2 | 0 (0 represents from 0 to 25% damage) |  | 0 (0 represents from 0 to 25% damage) |  | 0 (0 represents from 0 to 25% damage) |  | 0 (0 represents from 0 to 25% damage) | 3+ (3+ represents 100% kill) | 3+ (3+ represents 100% kill) | 2 | 3+ (3+ represents 100% kill) | 1 | 3+ (3+ represents 100% kill) | 1 | damage to plants, Ms (Mustard [10]; 5 kg/ha): 3+ (3+ represents 100% kill); damage to plants, Rg (Ryegrass [13]; 5 kg/ha): 3+ (3+ represents 100% kill); damage to plants, Wh (Wheat [14]; 5 kg/ha): 3 (3 represents 75 to 99% kill)
COC(=O)C(C)Oc1ccc(Nc2ccccc2[N+](=O)[O-])cc1 (stereo not drawn) [Compound 25] |  |  |  |  |  |  |  |  |  |  |  |  |  |  |  |  |  |  |  |  | damage to plants, Rg (Ryegrass [1]; 10 kg/ha): 3+ (3+ represents 100% kill); damage to plants, Wh (Wheat [2]; 10 kg/ha): 1; damage to plants, Jm (Japanese millet [3]; 10 kg/ha): 3 (3 represents 75 to 99% kill); damage to plants, Ms (Mustard [5]; 10 kg/ha): 0 (0 represents from 0 to 25% damage); damage to plants, Ip (Ipomea [6]; 10 kg/ha): 0 (0 represents from 0 to 25% damage); damage to plants, Sf (Sunflower [7]; 10 kg/ha): 0 (0 represents from 0 to 25% damage); damage to plants, Jm (Japanese millet [8]; 10 kg/ha): 3+ (3+ represents 100% kill); damage to plants, Ot (Wild Oats [9]; 10 kg/ha): 3 (3 represents 75 to 99% kill); damage to plants, Ms (Mustard [10]; 10 kg/ha): 0 (0 represents 0 to 25% damage); damage to plants, Ip (Ipomea [11]; 10 kg/ha): 0 (0 represents 0 to 25% damage); damage to plants, Sf (Sunflower [12]; 10 kg/ha): 0 (0 represents 0 to 25% damage); damage to plants, Rg (Ryegrass [13]; 10 kg/ha): 3+ (3+ represents 100% kill); damage to plants, Wh (Wheat [14]; 10 kg/ha): 3 (3 represents 75 to 99% kill)
COC(=O)C(C)Oc1ccc(Nc2ccc(Br)cc2N)cc1 (stereo not drawn) [Compound 32, Methyl 2-[4-(2-amino-4-bromoanilino)phenoxy] propionate] |  | 2 |  | 1 |  | 3 (3 represents 75 to 99% kill) | 0 (0 represents from 0 to 25% damage) |  | 0 (0 represents from 0 to 25% damage) |  | 0 (0 represents from 0 to 25% damage) |  | 0 (0 represents from 0 to 25% damage) |  |  |  |  |  |  |  | 
CCCCSC(=O)C(C)Oc1ccc(Nc2ccc(C(F)(F)F)cc2[N+](=O)[O-])cc1 (stereo not drawn) [Compound 62] | 2 |  | 0 (0 represents from 0 to 25% damage) |  | 2 |  |  | 0 (0 represents from 0 to 25% damage) |  | 0 (0 represents from 0 to 25% damage) |  | 0 (0 represents from 0 to 25% damage) |  | 3+ (3+ represents 100% kill) |  | 3 (3 represents 75 to 99% kill) |  | 0 (0 represents 0 to 25% damage) | 3+ (3+ represents 100% kill) | 3 (3 represents 75 to 99% kill) | damage to plants, Ot (Wild Oats [4]; 1 kg/ha): 1; damage to plants, Ip (Ipomea [11]; 1 kg/ha): 0 (0 represents 0 to 25% damage); damage to plants, Sf (Sunflower [12]; 1 kg/ha): 0 (0 represents 0 to 25% damage)
CC(Oc1ccc(Nc2ccc(Cl)cc2[N+](=O)[O-])cc1)C(=O)OC1CCCCC1 (stereo not drawn) [Compound 79] | 3 (3 represents 75 to 99% kill) | 3 (3 represents 75 to 99% kill) | 0 (0 represents from 0 to 25% damage) | 0 (0 represents from 0 to 25% damage) | 3 (3 represents 75 to 99% kill) | 3+ (3+ represents 100% kill) |  | 0 (0 represents from 0 to 25% damage) | 0 (0 represents from 0 to 25% damage) | 0 (0 represents from 0 to 25% damage) | 0 (0 represents from 0 to 25% damage) | 0 (0 represents from 0 to 25% damage) | 0 (0 represents from 0 to 25% damage) | 3+ (3+ represents 100% kill) | 3+ (3+ represents 100% kill) | 3 (3 represents 75 to 99% kill) | 3 (3 represents 75 to 99% kill) | 0 (0 represents 0 to 25% damage) | 3+ (3+ represents 100% kill) | 2 | damage to plants, Ms (Mustard [10]; 5 kg/ha): 0 (0 represents 0 to 25% damage); damage to plants, Ip (Ipomea [11]; 1 kg/ha): 0 (0 represents 0 to 25% damage); damage to plants, Ip (Ipomea [11]; 5 kg/ha): 0 (0 represents 0 to 25% damage); damage to plants, Sf (Sunflower [12]; 1 kg/ha): 0 (0 represents 0 to 25% damage); damage to plants, Sf (Sunflower [12]; 5 kg/ha): 0 (0 represents 0 to 25% damage); damage to plants, Rg (Ryegrass [13]; 5 kg/ha): 3 (3 represents 75 to 99% kill); damage to plants, Wh (Wheat [14]; 5 kg/ha): 3 (3 represents 75 to 99% kill)
